A short description of data set [1]: Stability towards drug metabolizing enzymes in lung S9. The class given is in vitro ADME. The conditions noted are these: human, lung S9 from smokers with NADPH, UDPGA, PAPS and GSH, read-out: t½ human lung S9. The procedure: i) C.2.2. Stability Towards Drug Metabolizing Enzymes in Lung S9
A 1 μM solution of the ROCK inhibitors is incubated with a reaction mixture containing lung S9 (from smokers) as well as the cofactors NADPH, UDPGA, PAPS and GSH. Samples are collected at 0, 15, 30 and 60 minutes post incubation. Negative control samples incubated with ROCK inhibitors and S9 fraction in the absence of cofactors are run in parallel. By using LC-MS/MS analysis, the percent of ROCK compounds remaining at each time point, the metabolic half-life of the ROCK compounds (expressed in minutes) and the metabolic half-life of the control compounds are determined.

Another data set addresses T1, ROCK II (Homo sapiens, UniProt O75116).
T1 construct: purchased Proqinase
The experiment in a line: ROCK II kinase inhibition, Method 1 Proqinase setup (33P radioisotopic protein kinase assay). The conditions noted are these: 33P radioisotopic assay, 1 μM ATP, read-out: IC50 Meth. 1. The class given is biochemical. The procedure:
A ^33P radioisotopic protein kinase assay is used to determine the IC50 for inhibiting ROCK II. A final 50 μl reaction cocktail, containing 60 mM HEPES-NaOH (pH 7.5), 3 mM MgCl2, 3 mM MnCl2, 3 μM Na-orthovanadate, 1.2 mM DTT, 1 μM ATP, 50 μg/ml PEG20.000, 1% (v/v) DMSO, 1 μM ATP (approx. 3×10^5 cpm ^33P-γ-ATP), the substrate (Substrate: S6 peptide—2000 ng/well) and recombinant protein kinase (0.5 nM-2.5 ng/well) is mixed on a shaker and incubated at 30° C. for 80 minutes. The reaction is stopped by the addition of 50 μl of a 2% solution of H3PO4 and mixed on a shaker. After washing twice with 200 μl of a 0.9% solution of NaCl, the dry plate is counted.

The next data set addresses T2, ROCKα/ROCKII (Homo sapiens, UniProt O75116).
T2 construct: purchased Upstate Biotechnology 14-451
The experiment in a line: ROCK inhibition, Method 2 fluorescence polarization (FP) assay, ROCK IMAP Kit. It is filed as biochemical. The conditions noted are these: 10 μM ATP, read-out: IC50 Meth. 2. (In general: Polarisation of emitted light reports the rotation of a fluorescent probe.)

Data set [2] in a line: Stability assay in rabbit aqueous humor. The class given is in vitro ADME. As to conditions: 1 μM in rabbit aqueous humor, LC-MS/MS; read-out: t½ rabbits AH. The procedure:
i) C.2.3. Stability Assay in Rabbit Aqueous Humor
Compounds are incubated at a concentration of 1 μM in rabbit aqueous humor (AH). Samples are taken at fixed time points and the remnant of compound is determined by LC-MS/MS after protein precipitation.

The test system of the next data set is LPS-stimulated PBMC. In words: Cellular assay using LPS-stimulated PBMC, TNF release (ELISA), in the absence and presence of plasma. The class given is cell-based. From the text:
C.1.2. Activity Against ROCK in a Cellular Assay Using LPS-Stimulated PBMC in the Absence and Presence of Plasma
To ensure the stimulation of PBMC by LPS, the medium is enriched with LPS-binding protein (LBP) that will facilitate the delivery of LPS to the CD14 receptor and enhance the LPS-induced immune response. Cytokines secreted by activated PBMC include TNF, which is detected by means of a colorimetric ELISA. In the presence of an active compound, the release of TNF is inhibited in a concentration-dependent manner. Subsequently a control assay using the same set up in the presence of plasma is included.

For a further data set, the system named is Guinea pig trachea rings. The experiment in a line: Smooth muscle relaxing activity in organ baths of guinea pig trachea (carbachol). The conditions noted are these: Cavia porcellus; guinea pig trachea rings contracted with carbachol. The procedure:
C.1.3. Smooth Muscle Relaxing Activity of Generated Soft ROCK Inhibitors In Vitro Using Organ Baths of Guinea Pig Trachea
Guinea pig trachea rings are prepared and incubated with a fixed concentration of the bronchoconstrictive agent carbachol. Then, increasing concentrations of the soft ROCK inhibitors are added and the contractive properties of the trachea measured for each of the compound concentrations. The study set-up allows the determination of an IC50, represented by the concentration of compound that induces a force equal to 50% of that observed for the vehicle-treated trachea.
In addition retention on the target is assessed using the above described organ baths of guinea pig trachea. In brief, upon induction of maximal relaxation with the ROCK inhibitors, trachea rings are thoroughly washed. Then, carbachol is added again and contractive properties are measured to determine whether the inhibitory activity of the ROCK inhibitors is prolonged upon the washout. A prolonged inhibitory activity after the washout is highly indicative for a prolonged retention of the compound at the lungs in vivo.

A short description of data set [3]: Stability assay in rat plasma. It is filed as in vitro ADME. As to conditions: 1 μM in rat plasma, LC-MS/MS; read-out: t½ rat plasma. The procedure:
(§1) C.2.1. Stability Assay in Human and/or Rat Plasma
(§2) Compounds are incubated at a concentration of 1 μM in rat (mice or rabbit) or human plasma. Samples are taken at fixed time points and the remnant of compound is determined by LC-MS/MS after protein precipitation. Half life is expressed in minutes.

Data set [4] in a line: Stability assay in human plasma. The class given is in vitro ADME. The conditions noted are these: 1 μM in human plasma, LC-MS/MS; read-out: t½ human plasma. The procedure:
as §1, §2

Like-named read-outs stand apart in the source and are kept apart here.

T2 sequence (O75116 whole entry): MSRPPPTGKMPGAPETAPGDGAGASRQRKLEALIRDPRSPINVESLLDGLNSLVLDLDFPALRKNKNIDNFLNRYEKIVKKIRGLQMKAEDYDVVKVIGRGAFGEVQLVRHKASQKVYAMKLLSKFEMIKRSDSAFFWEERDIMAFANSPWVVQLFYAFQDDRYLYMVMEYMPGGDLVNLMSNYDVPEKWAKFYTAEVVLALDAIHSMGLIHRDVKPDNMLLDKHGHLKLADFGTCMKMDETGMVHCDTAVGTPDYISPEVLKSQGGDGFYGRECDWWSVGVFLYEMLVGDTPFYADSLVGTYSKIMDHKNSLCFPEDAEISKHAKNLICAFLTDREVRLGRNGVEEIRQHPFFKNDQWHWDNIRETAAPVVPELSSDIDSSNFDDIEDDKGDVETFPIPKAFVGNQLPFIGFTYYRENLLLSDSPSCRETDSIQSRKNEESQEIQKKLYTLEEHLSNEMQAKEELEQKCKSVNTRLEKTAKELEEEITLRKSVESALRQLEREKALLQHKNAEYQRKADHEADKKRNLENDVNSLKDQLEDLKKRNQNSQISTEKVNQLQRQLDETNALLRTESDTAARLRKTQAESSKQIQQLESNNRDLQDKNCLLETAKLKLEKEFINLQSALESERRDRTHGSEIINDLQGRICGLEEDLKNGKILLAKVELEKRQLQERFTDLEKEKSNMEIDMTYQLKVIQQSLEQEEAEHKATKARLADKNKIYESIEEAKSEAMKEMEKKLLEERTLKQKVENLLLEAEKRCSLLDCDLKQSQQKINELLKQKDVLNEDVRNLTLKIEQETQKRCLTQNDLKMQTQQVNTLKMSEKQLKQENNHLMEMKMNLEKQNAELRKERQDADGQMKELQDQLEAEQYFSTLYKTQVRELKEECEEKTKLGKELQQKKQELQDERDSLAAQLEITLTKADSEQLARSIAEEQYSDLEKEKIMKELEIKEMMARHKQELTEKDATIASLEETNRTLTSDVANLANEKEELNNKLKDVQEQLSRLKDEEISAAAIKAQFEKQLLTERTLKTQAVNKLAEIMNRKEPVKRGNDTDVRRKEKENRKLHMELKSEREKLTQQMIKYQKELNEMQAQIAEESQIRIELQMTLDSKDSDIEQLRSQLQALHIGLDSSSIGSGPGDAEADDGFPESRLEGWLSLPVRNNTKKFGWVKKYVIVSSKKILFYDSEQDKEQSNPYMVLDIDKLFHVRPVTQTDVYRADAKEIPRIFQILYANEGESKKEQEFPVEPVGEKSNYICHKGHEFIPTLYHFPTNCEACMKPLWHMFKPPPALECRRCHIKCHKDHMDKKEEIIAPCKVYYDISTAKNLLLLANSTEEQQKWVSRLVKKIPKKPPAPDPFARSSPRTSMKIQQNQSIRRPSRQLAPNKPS
T1 sequence (O75116 whole entry): as above

With `CC(N)c1ccc(C(=O)Nc2ccncc2)cc1-c1cccc(C(=O)OCCO)c1` (stereo not drawn) [Compound 65, 2′-(1-Amino-ethyl)-5′-(pyridin-4-ylcarbamoyl)-biphenyl-3-carboxylic acid 2-hydroxy-ethyl ester], the half-life at 1 μM in data set [1] was greater than 60 min. Besides, the half-inhibitory concentration (IC50) at ROCK II and at ROCKα/ROCKII was less than 100 nM in each case.
Regarding `CC(N)c1ccc(C(=O)Nc2ccncc2F)cc1-c1cccc(C(=O)OCC2CCCO2)c1` (stereo not drawn) [Compound 46, 2′-(1-Amino-ethyl)-5′-(3-fluoro-pyridin-4-ylcarbamoyl)-biphenyl-3-carboxylic acid tetrahydro-furan-2-ylmethyl ester], the half-life at 1 μM in data set [1] was 53 min; in data set [2] it was greater than 60 min; in data set [3], 5.8 min; in data set [4] it was 1.9 min. Moreover, the IC50 (in general, the concentration that gives 50% inhibition) in the data set on LPS-stimulated PBMC (in the presence of plasma, read-out: IC50 in the presence of plasma) was greater than 10000 nM; in the data set on LPS-stimulated PBMC (without plasma, read-out: IC50 (assay without plasma)) it was 120 nM; at ROCK II, 100 to 1000 nM; in the data set on Guinea pig trachea rings, 500 nM; at ROCKα/ROCKII, less than 100 nM.
In the case of `COC(=O)COc1cccc(-c2cc(C(=O)Nc3ccncc3)ccc2CN)c1` [Compound 137, [2′-Aminomethyl-5′-(pyridin-4-ylcarbamoyl)-biphenyl-3-yloxy]-acetic acid methyl ester], the half-inhibitory concentration (IC50) at ROCK II lay within 100 to 1000 nM. Further, the half-life at 1 μM in data set [3] was less than 1 min; in data set [4] it was 1.9 min.
As to `CC(N)c1ccc(C(=O)Nc2ccncc2F)cc1-c1cccc(C(=O)OCC2CCCCO2)c1` (stereo not drawn) [Compound 47, 2′-(1-Amino-ethyl)-5′-(3-fluoro-pyridin-4-ylcarbamoyl)-biphenyl-3-carboxylic acid tetrahydro-pyran-2-ylmethyl ester], the half-life at 1 μM in data set [1] is greater than 60 min; in data set [3], 4.5 min; in data set [4] it was 9.8 min. The results for the IC50 at ROCK II and on ROCKα/ROCKII were 100 to 1000 nM and less than 100 nM, respectively.
For `CCCOC(=O)c1cc(-c2cc(C(=O)Nc3ccncc3)ccc2C(C)N)c[nH]1` (stereo not drawn) [Compound 169, 4-[2-(1-Amino-ethyl)-5-(pyridin-4-ylcarbamoyl)-phenyl]-1H-pyrrole-2-carboxylic acid propyl ester], in data set [2], the half-life at 1 μM was greater than 60 min. Further, the IC50 at ROCK II is less than 100 nM.
As for `CCSC(=O)c1cccc(-c2cc(C(=O)Nc3ccncc3)ccc2CN)c1` [Compound 97, 2′-Aminomethyl-5′-(pyridin-4-ylcarbamoyl)-biphenyl-3-carbothioic acid S-ethyl ester], the IC50 at ROCK II is less than 100 nM. The half-life at 1 μM in data set [3] was 38 min; in data set [4], 44 min.
For `CC(N)c1ccc(C(=O)Nc2ccncc2F)cc1-c1cccc(C(=O)Oc2ccccc2)c1` (stereo not drawn) [Compound 71, 2′-(1-Amino-ethyl)-5′-(3-fluoro-pyridin-4-ylcarbamoyl)-biphenyl-3-carboxylic acid phenyl ester], the IC50 on ROCK II and at ROCKα/ROCKII was 100 to 1000 nM throughout.
Turning to `CCCOC(=O)c1cccc(-c2cc(C(=O)Nc3ccncc3F)ccc2C(C)N)c1` (stereo not drawn) [Compound 12, 2′-(1-Amino-ethyl)-5′-(3-fluoro-pyridin-4-ylcarbamoyl)-biphenyl-3-carboxylic acid propyl ester], the IC50 was 100 to 1000 nM on ROCK II and less than 100 nM on ROCKα/ROCKII.
As for `CC(N)c1ccc(C(=O)Nc2ccncc2)cc1-c1cccc(CCC(=O)Oc2ccccc2)c1` (stereo not drawn) [Compound 167, 3-[2′-(1-Amino-ethyl)-5′-(pyridin-4-ylcarbamoyl)-biphenyl-3-yl]-propionic acid phenyl ester], the IC50 at ROCK II was 100 to 1000 nM; on ROCKα/ROCKII, less than 100 nM.
The like results for `CC(N)c1ccc(C(=O)Nc2ccncc2)cc1-c1cccc(C(=O)Oc2ccccc2)c1` (stereo not drawn) [Compound 70, 2′-(1-Amino-ethyl)-5′-(pyridin-4-ylcarbamoyl)-biphenyl-3-carboxylic acid phenyl ester] were, in that order, less than 100 nM and less than 100 nM.

These data come from patent US8912209B2, “Rock inhibitors” (Amakem NV, priority 2010, dated 2014).
